Assay results taken from ChEMBL document CHEMBL1132245, “Novel and potent 6-chloro-3-pyridinyl ligands for the alpha4beta2 neuronal nicotinic acetylcholine receptor” (J Med Chem, 1999).

Assays:
Format in all cases: protein-complex assay
[1] = biological target: T1, Neuronal acetylcholine receptor; alpha4/beta2 (Rattus norvegicus, UniProt P09483+P12390); assay: Inhibition of [3H](-)-nicotine binding to recombinant rat alpha4-beta2 nAChR.
[2] = biological target: T1, Neuronal acetylcholine receptor; alpha4/beta2; assay: Inhibition of [3H](-)-nicotine binding to recombinant rat alpha4-beta2 nAChR was determined; experiment 2
[3] = biological target: T1, Neuronal acetylcholine receptor; alpha4/beta2; assay: Inhibition of [3H](-)-nicotine binding to recombinant rat alpha4-beta2 nAChR was determined; experiment 1

T1 sequence (P09483 whole entry): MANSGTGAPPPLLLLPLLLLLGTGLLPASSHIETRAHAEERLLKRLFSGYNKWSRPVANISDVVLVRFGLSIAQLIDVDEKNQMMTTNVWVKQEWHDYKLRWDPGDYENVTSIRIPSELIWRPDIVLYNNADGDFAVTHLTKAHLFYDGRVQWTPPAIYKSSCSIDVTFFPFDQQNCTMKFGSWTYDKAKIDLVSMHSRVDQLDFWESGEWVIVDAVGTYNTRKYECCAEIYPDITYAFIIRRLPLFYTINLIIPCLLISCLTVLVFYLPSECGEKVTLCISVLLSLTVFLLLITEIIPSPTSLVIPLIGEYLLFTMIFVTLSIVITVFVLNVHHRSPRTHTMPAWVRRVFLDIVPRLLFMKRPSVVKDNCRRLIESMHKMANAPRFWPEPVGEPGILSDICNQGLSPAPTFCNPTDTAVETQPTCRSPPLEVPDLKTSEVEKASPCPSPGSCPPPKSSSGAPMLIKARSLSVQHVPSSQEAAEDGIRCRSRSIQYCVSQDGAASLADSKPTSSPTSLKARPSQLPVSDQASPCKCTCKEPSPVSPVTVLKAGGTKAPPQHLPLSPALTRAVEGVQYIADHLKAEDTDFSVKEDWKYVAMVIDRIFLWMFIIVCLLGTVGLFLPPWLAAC
T1 sequence (P12390 whole entry): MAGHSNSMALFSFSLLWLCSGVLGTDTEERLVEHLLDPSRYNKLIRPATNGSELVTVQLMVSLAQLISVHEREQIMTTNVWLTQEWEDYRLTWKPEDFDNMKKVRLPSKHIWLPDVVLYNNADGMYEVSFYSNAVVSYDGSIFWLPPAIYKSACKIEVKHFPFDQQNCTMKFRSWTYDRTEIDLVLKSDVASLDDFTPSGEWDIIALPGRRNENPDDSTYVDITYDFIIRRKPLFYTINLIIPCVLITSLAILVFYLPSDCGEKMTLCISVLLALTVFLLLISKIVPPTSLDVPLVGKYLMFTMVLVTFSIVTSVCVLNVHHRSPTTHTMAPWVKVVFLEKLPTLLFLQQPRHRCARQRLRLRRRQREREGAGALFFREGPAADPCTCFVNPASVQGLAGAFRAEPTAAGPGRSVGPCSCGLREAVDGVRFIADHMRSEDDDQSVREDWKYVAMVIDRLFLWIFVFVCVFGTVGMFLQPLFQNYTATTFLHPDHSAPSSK

| Compound | IC50 [1] | IC50 [2] | IC50 [3] |
| --- | --- | --- | --- |
| Clc1ccc(Cn2ccnc2)cn1 | 0.45 µM | – | – |
| NC1=NCCCS1 | 160 µM | – | – |
| Clc1ccc(CN2CCN(Cc3ccc(Cl)nc3)CC2)cn1 | – | 1.65 µM | 1.74 µM |
| SC1=NCCN1Cc1ccc(Cl)nc1 | – | 13.5 µM | 12.6 µM |
| NC1=NCCO1 | – | 95.3 µM | 99.5 µM |
| CN1CCCC1c1ccc(Cl)nc1 (stereo not drawn) | 0.0019 µM | – | – |
| CN1CCCC1c1cccnc1Cl (stereo not drawn) | 3.2 µM | – | – |
| O=C1NCCN1Cc1ccc(Cl)nc1 | 8.1 µM | – | – |
| CCN(Cc1ccc(Cl)nc1)C(=N)NC | 3.3 µM | – | – |
| N=C1NCCN1Cc1ccc(Cl)nc1 [DESNITROIMIDACLOPRID] | 0.006 µM | – | – |
